Source: PMC9760604, “Strand 1A variant in neuroserpin shows increased aggregation and no loss of inhibition: implication in ameliorating polymerization to retain activity” (Bioscience Reports, 2022)
Numbering of substitutions follows the chain as printed.

Tests used:
WT NS (neuroserpin) [1] = molecular target: T1, WT NS (neuroserpin) (Homo sapiens, UniProt Q99574, H138C); assay: Bis-ANS fluorescence, excitation […] nm; assay type: binding; conditions: 2 uM protein, Bis-ANS 1:5 ratio (10 uM), 25 °C, surface hydrophobicity probe
T1 construct: gene SERPINI1; N-terminal 6-His tag, pET28b, expressed in E. coli BL21(DE3), monomeric
T1 sequence (Q99574 17-410 H138C): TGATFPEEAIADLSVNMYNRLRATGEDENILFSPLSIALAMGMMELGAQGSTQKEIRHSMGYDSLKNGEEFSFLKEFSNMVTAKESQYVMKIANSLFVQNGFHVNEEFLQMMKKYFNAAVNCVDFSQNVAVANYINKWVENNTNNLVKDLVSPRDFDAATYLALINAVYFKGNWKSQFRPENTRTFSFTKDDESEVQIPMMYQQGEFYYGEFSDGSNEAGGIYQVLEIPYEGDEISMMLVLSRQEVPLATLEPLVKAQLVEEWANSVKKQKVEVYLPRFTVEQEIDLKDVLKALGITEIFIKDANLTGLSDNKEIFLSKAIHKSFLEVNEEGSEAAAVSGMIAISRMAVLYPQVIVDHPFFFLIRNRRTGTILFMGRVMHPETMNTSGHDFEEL

WT NS (neuroserpin) [2] = molecular target: T2, WT NS (neuroserpin) (Homo sapiens, UniProt Q99574, H138C/W154C); assay: Bis-ANS fluorescence, excitation […] nm; assay type: binding; conditions: 2 uM protein, Bis-ANS 1:5 ratio (10 uM), 25 °C, surface hydrophobicity probe
T2 construct: gene SERPINI1; N-terminal 6-His tag, pET28b, expressed in E. coli BL21(DE3), monomeric
T2 sequence (Q99574 17-410 H138C/W154C): T1 sequence (Q99574 17-410 H138C) with W138C

Structure (SMILES): O=S(=O)(O)c1cccc2c(-c3ccc(Nc4ccccc4)c4c(S(=O)(=O)O)cccc34)ccc(Nc3ccccc3)c12 [Bis-ANS, 4,4-Bis-1-anilino naphthalene 8-sulfonate]
- Bis-ANS fluorescence, excitation 390 nm (WT NS (neuroserpin) [1]): More hydrophobic exposure was observed due to increase Bis-ANS fluorescence in the H138C variant
- Bis-ANS fluorescence, excitation 390 nm (WT NS (neuroserpin) [2]): The double variant showed a decreased fluoroscence emission intensity, and a very high surface hydrophobicity
